Reference: US6555558B2, “Oral dosage self-emulsifying formulations of pyranone protease inhibitors” (priority 2000, dated 2003)

Experiments:
[1] = solubility in polyethylene glycols; type: physicochemical; conditions: polyethylene glycols within a defined average molecular weight range
Procedure: Microemulsion phase diagrams were constructed for systems containing various lipophilic phases, hydrophilic phases, and surfactants. After numerous studies it was determined that a number of pyranone protease inhibitors, including tipranavir, were soluble in polyethylene glycols within a defined average molecular weight range, and could be used to replace propylene glycol and ethanol found in conventional microemulsion formulations of such drugs.

HIV = conditions: antiviral cell culture; cited from earlier work
[2] = cited from earlier work
[3] = free acid form; pH of from about 6 to about 7; cited from earlier work
[4] = test system: isolates resistant to indinavir, ritonavir and nelfinavir; saquinavir resistance; conditions: cited from earlier work
[5] = test system: HIV-1 variants resistant to the peptidomimetic protease inhibitors; conditions: cited from earlier work
HIV protease = target: T1, HIV protease (Human immunodeficiency virus type 1 group M subtype B, UniProt P04585); conditions: in vitro enzymatic inhibition; cited from earlier work
T1 construct: one of the smallest enzymes yet characterized (consisting of only 99 amino acids)

[6] = test system: clinical isolates with a wide range of resistance to currently available peptidomimetic protease inhibitors; conditions: 105 viruses with more than tenfold resistance to three or four proteinase inhibitors, average 6.1 protease mutations; cited from earlier work
[7] = test system: viral aspartate proteases of a variety of HIV type 1 laboratory strains and clinical isolates; conditions: including those resistant to zidovudine and delavirdine; cited from earlier work

For `CCC[C@@]1(CCc2ccccc2)CC(O)=C([C@H](CC)c2cccc(NS(=O)(=O)c3ccc(C(F)(F)F)cn3)c2)C(=O)O1` [tipranavir], the “solubility in polyethylene glycols” value [1] is listed as “soluble”, the IC90 (HIV) is listed as about 100 nM and the “Log P” value [2] is listed as “about 6.1”. The aqueous solubility [3] was “about 10 μg/ml”, the “antiviral activity against isolates resistant to indinavir, ritonavir and nelfinavir” value [4] was “retain sustained antiviral activity” and the “activity against HIV-1 variants resistant to peptidomimetic protease inhibitors” value [5] was “highly active”. The Ki (HIV protease) was about 0.008 nM, the “share of resistant viruses susceptible” value [6] was “ninety” and the “potency against viral aspartate proteases” value [7] was “excellent potency”.
